Target: T1, HDAC6 (Homo sapiens, UniProt Q9UBN7)
T1 sequence (Q9UBN7 1-1215): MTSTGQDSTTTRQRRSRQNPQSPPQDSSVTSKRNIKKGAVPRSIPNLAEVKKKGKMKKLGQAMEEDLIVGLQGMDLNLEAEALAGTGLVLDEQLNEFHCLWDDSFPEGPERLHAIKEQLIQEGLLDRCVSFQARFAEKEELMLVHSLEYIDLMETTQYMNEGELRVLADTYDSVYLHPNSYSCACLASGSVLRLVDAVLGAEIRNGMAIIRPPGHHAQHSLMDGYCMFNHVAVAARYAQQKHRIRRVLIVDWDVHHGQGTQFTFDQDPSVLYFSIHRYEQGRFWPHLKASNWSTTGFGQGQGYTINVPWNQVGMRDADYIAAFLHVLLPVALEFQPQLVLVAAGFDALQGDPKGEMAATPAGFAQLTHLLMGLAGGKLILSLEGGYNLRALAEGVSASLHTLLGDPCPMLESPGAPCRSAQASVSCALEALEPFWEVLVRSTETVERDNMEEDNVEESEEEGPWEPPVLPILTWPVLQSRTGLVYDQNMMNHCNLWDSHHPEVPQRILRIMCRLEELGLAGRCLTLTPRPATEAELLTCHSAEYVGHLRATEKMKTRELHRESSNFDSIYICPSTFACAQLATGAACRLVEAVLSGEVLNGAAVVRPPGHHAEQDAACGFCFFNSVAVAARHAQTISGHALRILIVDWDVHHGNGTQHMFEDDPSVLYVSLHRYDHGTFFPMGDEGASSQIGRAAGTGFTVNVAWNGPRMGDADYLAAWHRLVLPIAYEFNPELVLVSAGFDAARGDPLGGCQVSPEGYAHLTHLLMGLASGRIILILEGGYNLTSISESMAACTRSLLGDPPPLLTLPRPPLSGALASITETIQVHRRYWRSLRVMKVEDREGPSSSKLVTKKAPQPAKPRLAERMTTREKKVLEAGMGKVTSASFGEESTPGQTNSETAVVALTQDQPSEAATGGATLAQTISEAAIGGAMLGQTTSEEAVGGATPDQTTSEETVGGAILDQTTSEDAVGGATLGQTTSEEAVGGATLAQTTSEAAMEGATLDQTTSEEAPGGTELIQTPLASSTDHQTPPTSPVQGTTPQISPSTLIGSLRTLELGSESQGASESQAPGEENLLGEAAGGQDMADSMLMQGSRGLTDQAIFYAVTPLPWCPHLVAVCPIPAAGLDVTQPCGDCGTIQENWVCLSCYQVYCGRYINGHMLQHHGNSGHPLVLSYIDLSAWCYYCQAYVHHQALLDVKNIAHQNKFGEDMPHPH
Assay: Simple Western immunoassay, HDAC6 levels in MM.1S cell lysates
Assay type: cell-based
Design: endogenous in cells; host or cells: MM.1S
Conditions: MM.1S cells, 10 μM; for reduction of HDAC6 protein levels: 24 h
Procedure: Figure 3 Initial degradation screening of HDAC1 and 6 by DCAF11‐recruiting PROTACs by Simple Western™ immunoassay analysis of MM.1S cell lysates. MM.1S cells were treated with the indicated compound (10 μM) or vehicle (DMSO) for 24 h. […] Bottom: Representative images from a total of n=3 biological replicates, labeled with spacer type; w/o: without spacer.
2. Biological Experiments […]
The human multiple myeloma cell line MM.1S (CRL-2974) was obtained from American Type Culture Collection (ATCC, Manassas, VA, USA). The semi-adherent cells were cultivated in RPMI 1640 medium (Catalog#21875-034, Gibco, ThermoFisher Scientific Inc., Waltham, MA, USA) supplemented with 10% FBS (PAN Biotech GmbH; Aidenbach, Germany), 100 IU/mL penicil lin, 0.1 mg/mL streptomycin (PAN Biotech GmbH) and 1 mM sodium pyruvate (ThermoFisher Scientific Inc.). […]
(PAN Biotech GmbH). All cells were cultured at 37 °C in a 5% CO2 atmosphere. Incubation times, as part of assay protocols, were performed under these conditions as well. […]
2.2. Simple Western™ Immunoassay
For the cell lysates, MM.1S (0.5 × 10^6 cells/mL) or U-87MG (0.18 × 10^6 cells/mL) cells were seeded and incubated with the indicated concentration of compound or vehicle (DMSO) for the given time. […]
SDS, 0.5% deoxycholate; Catalog# FNN0011, Thermo Fisher Scientific Inc., Waltham, MA, USA) with addition of Halt Protease Inhibitor Cocktail (100×) (Catalog# 78429, Life Technologies GmbH, Carlsbad, CA, USA) and phenylmethanesulfonyl fluoride (Catalog# 10837091001, Sigma-Aldrich, St.
Louis, MO, USA) according to manufacturer´s instructions. Protein content was determined by Pierce™ BCA Protein Assay Kit (Catalog# 23225, Thermo Fisher Scientific Inc.) according to manufacturer´s guidelines. […]
Fluorescence Separation 8x25 Capillary Cartridges (Catalog# SM-FL004-1, Protein Simple, Bio-Techne, Minneapolis, MN, USA) were used for separation and the Anti-Mouse Detection Module (Catalog# DM-002, Protein Simple) was used for detection with addition of 20x Anti-Rabbit HRP […]
Conjugate (Catalog# 043-426, Protein Simple) according to manufacturer´s instructions. […] Evaluation and quantification was performed with the compass software (6.2.0, Protein Simple). […]
For the cell viability assay the automated pipetting robot system ASSIST PLUS (Model# 4505, Integra Biosciences, Bibertal, Germany) was used. […] The toxicity of compounds was determined after 72 h using the CellTiter-Glo 2.0 Cell Viability Assay (Promega, Madison, WI, USA, #G9242) according to the manufacturer´s protocol. Subsequently, the luminescence was measured using a Tecan Spark (Tecan Group AG, Maennedorf, Swiss) and the half maximal effective concentration (EC50) was determined by plotting dose response curves and nonlinear regression with GraphPad Prism (GraphPad Software, San […]

| Compound | reduction of HDAC6 protein levels | effect on HDAC6 protein levels (14 h) | time dependent degradation of HDAC6 (after 6 h) |
| --- | --- | --- | --- |
| O=C(CCCCCCNC(=O)c1ccc(N(C(=O)CCl)C(C(=O)NCc2ccccc2)c2ccc(Cl)c(Cl)c2)cc1)NO (stereo not shown) [Compound 2] | significant reduction of HDAC6 protein levels |  |  |
| O=CN(CCCCCCCCCCCC(=O)Nc1ccc(C(=O)NCCCCCCC(=O)NO)cc1)C(C(=O)NCc1ccccc1)c1ccc(Cl)c(Cl)c1 (stereo not shown) [Compound 1j-nc] |  | not able to affect the protein levels of HDAC1 and 6 |  |
| O=C(CCCCCCNC(=O)c1ccc(NC(=O)CCCCCCCCCCCN(C(=O)CCl)C(C(=O)NCc2ccccc2)c2ccc(Cl)c(Cl)c2)cc1)NO (stereo not shown) [Compound 1j] | significant reduction of HDAC6 protein levels |  | significant degradation |

Reference: article PMC12091851, “Replacing a Cereblon Ligand by a DDB1 and CUL4 Associated Factor 11 (DCAF11) Recruiter Converts a Selective Histone Deacetylase 6 PROTAC into a Pan‐Degrader” (Chemmedchem, 2025)
